In patent publication US20030113330A1, “Methods for treating pulmonary fibrosis” (priority 1999, published 2003):
Entries after “also recorded” stand apart in the source; their conditions may differ. Where a SMILES comes first, the peptide text is derived from it. The star is where a group is joined. Cbz = O=C(OCc1ccccc1)*; CH2F = FC*

Legend:
primary rat AEC [1] = assay: Angiotensin II-induced apoptosis in primary rat AEC (nuclear fragmentation, PI); type: cell-based; conditions: ANGII 5.0 uM; saralasin 50 ug/ml, lisinopril 500 ng/ml
From the text: Cell Culture. The human lung adenocarcinoma cell line A549 was obtained from American Type Culture Collection and cultured in Ham's F12 medium supplemented with 10% fetal bovine serum (FBS). Primary alveolar epithelial cells were isolated from adult male Wistar rats as described in Uhal et al., Am. J. Physiol. Suppl. (Oct.) 261:110-117 (1991) and Uhal et al., Am. J. Physiol. 269:L819-L828 (1995). The primary cells were studied at day two of culture, a time at which they are type II cell-like by accepted morphologic and biochemical criteria, see Uhal, Am. J. Physiol. 272:L1031-L1045 (1997). […] J. Physiol. Suppl. (October) 261:110-117 (1991). All cells were seeded in 24-well or 6-well chambers, and all experiments were conducted at subconfluent densities of 80-90% in serum-free Ham's F12 medium. Test reagents were diluted with Ham's F12 medium and were applied for 20 h at 37° C. in a 5% CO2 incubator.
Detection of Apoptosis. Detection of apoptotic cells with propidium iodide (PI) was conducted as described in Uhal, et al., Am. J. Physiol. 275:L1013-1017 (1998) following digestion of ethanol-fixed cells with DNAse-free RNAse in PBS containing 5 ug/ml PI. Assay of Annexin V binding by flow cytometry was performed essentially as described for human lung fibroblasts in Uhal, et al., Am. J. Physiol. 275:L998-L1005 (1998) after trypsinization of cells from culture vessels. Assay of Caspase-3 activity was performed on viable suspension cultures as reported in Uhal, et al., Am. J. Physiol. 275:L1013-1017 (1998). In all assays, detached cells were retained by centrifugation of the culture vessels during fixation with 70% ethanol, or by retention of culture media and recovery by centrifugation before assay.
For microscopy, cells were cultured on glass cover slips, incubated with test reagents and fixed with 70% ethanol. The fixed cells were immunolabeled overnight at 4° C. with monoclonal antibodies to cytokeratins 7 and 19 (Chemicon International, Temecula, Calif.), and then for one hour at 37° C. with anti-mouse IgG-rhodamine and DNAse-free RNAse (Boehringer Mannheim, Indianapolis, Ind.) The cover slips were then rinsed in distilled water three times and mounted under Fluoromount Solution (Southern Biotechnology Associates, Birmingham, Ala.) containing 5 ug/ml propidium iodide. Photomicroscopy was performed as described in Uhal, et al., Am. J. Physiol. 275:L1013-1017 (1998).
Apoptosis in alveolar epithelial cells was quantitated by fluorescence detection of chromatin condensation and nuclear fragmentation in alcohol-fixed cells stained with propidium iodide. See Uhal, et al., Am. J. Physiol. 275:L1013-1017 (1998). […] After 20 h, the culture vessel was centrifuged to retain detached cells and labeled with anticytokeratin antibodies and propidium iodide. […] Double labeling with PI and monoclonal antibodies to cytokeratins 7 and 19 identified cells with both apoptotic nuclear morphology and positive anticytokeratin immunoreactivity.

primary rat AEC [2] = assay: Fas ligand-induced apoptosis of primary rat alveolar epithelial cells; type: cell-based; conditions: lisinopril 500 ng/ml; for inhibition of Fas ligand-induced apoptosis of primary rat AEC (words): captopril, caspase inhibitors 60 uM
Description: Lung Cell Isolation and Detection of Apoptosis In Vitro. Primary alveolar epithelial cells (AEC) were isolated from adult male Wistar rats as described above. The primary cells were studied at day two of culture, a time at which they are type II cell-like by accepted morphologic and biochemical criteria, see Paine et al., Am. J. Physiol. […] All cells were seeded in 24-well or 6-well chambers, and all experiments were conducted at subconfluent densities of 80-90% in serum-free Ham's F12 medium. Test reagents were diluted with Ham's F12 medium and were applied for 20 hours at 37° C. in a 5% CO2 incubator.
Detection of apoptotic cells with propidium iodide (PI) was conducted as described above, following digestion of ethanol-fixed cells with DNAse-free RNAse in PBS containing 5 ug/ml PI.
Expression of FAS by alveolar epithelial cells is observed during bleomycin-induced fibrogenesis in mice. See Hagimoto, et al., Am. J. Respir. Cell Mol. Biol. 16:91-101 (1997). […] Apoptosis was detected by quantitation of fragmented nuclei (see above).
Cell Culture and Detection of Apoptosis. The human lung adenocarcinoma cell line A549 was obtained from American Type Culture Collection and cultured in Ham's F12 medium supplemented with 10% fetal bovine serum (FBS). Primary alveolar epithelial cells were isolated from adult male Wistar rats as described earlier (Uhal, B. D., I. Joshi, A. True, S. Mundle, A. Raza, A. Pardo and M. Selman. Fibroblasts isolated after fibrotic lung injury induce apoptosis of alveolar epithelial cells in vitro. Am. J. Physiol. 269:L819-L828, 1995); Wang, R., A. Zagariya, 0. Ibarra-Sunga, C. […] Am. J. Physiol. 276:L885-L889 (1999)). […] All cells were seeded in 24-well or 6-well chambers, and all experiments were conducted at subconfluent densities of 80-90% in serum-free Ham's F12 medium. Test reagents were diluted with serum-free Ham's F12 medium and were applied under serum-free conditions for 20 hours at 37C. in a 5% CO2 incubator. Detection of apoptotic cells with propidium iodide (PI) was conducted as described above Am. J. Physiol. 275:L1013-1017 (1998); Uhal et al., following digestion of ethanol-fixed cells with DNAse-free RNAse in PBS containing 5 μg/ml PI. In all assays, detached cells were retained by centrifugation of the culture vessels during fixation with 70% ethanol, or by retention of culture media and recovery by centrifugation before assay.
Apoptosis was detected by nuclear fragmentation as described above.

| SMILES | inhibition of ANGII-induced apoptosis of primary rat AEC (primary rat AEC [1]) | inhibition of Fas ligand-induced apoptosis of primary rat AEC (words) (primary rat AEC [2]) | inhibition of Fas ligand-induced apoptosis of primary rat AEC (words) (primary rat AEC [2]; listed as ZVADfmk) | inhibition at 0.5 µg/mL (primary rat AEC [2]; Rattus norvegicus, Epithelial cell, read-out: inhibition of FASL-induced apoptosis, FASL 25 ng/ml, saralasin 5 mg/ml) [%] | inhibition of FASL-induced apoptosis (primary rat AEC [2]; FASL 25 ng/ml, saralasin 5 mg/ml) [%] |
| --- | --- | --- | --- | --- | --- |
| CCc1nc2c(C)cc(C)nc2n1Cc1ccc(-c2ccccc2-c2nn[nH]n2)cc1 [L158809] | could block | could block |  |  |  |
| COc1ccc2c(c1OCc1ccccc1)C[C@@H](C(=O)O)N(C(=O)C(c1ccccc1)c1ccccc1)C2 [PD126055] | unable to significantly inhibit | unable to significantly inhibit |  |  |  |
| COC(=O)C[C@H](NC(=O)[C@H](C)NC(=O)[C@@H](NC(=O)OCc1ccccc1)C(C)C)C(=O)CF [ZVAD-fmk, N-benzylcarboxy-Val-Ala-Asp-[O-Me]-CH2F] (Cbz-Val-Ala-Asp(OMe)-CH2F) |  | comparable efficacy to inhibit apoptosis | abrogate |  |  |
| C[C@H](CS)C(=O)N1CCC[C@H]1C(=O)O [captopril] |  | comparable efficacy to inhibit apoptosis; also recorded: blocked |  |  |  |
| NCCCC[C@H](N[C@@H](CCc1ccccc1)C(=O)O)C(=O)N1CCC[C@H]1C(=O)O [lisinopril] | did not block | blocked |  | 87 |  |
| CNCC(=O)N[C@@H](CCCN=C(N)N)C(=O)N[C@H](C(=O)N[C@@H](Cc1ccc(O)cc1)C(=O)N[C@H](C(=O)N[C@@H](Cc1cnc[nH]1)C(=O)N1CCC[C@H]1C(=O)N[C@@H](C)C(=O)O)C(C)C)C(C)C [saralasin] | completely inhibited | blocked |  |  | 92 |
